{
  "source": "patent US9023852B2",
  "about": "“1, 2, 4-thiadiazol-5-ylpiperazine derivatives useful in the treatment of neurodegenerative diseases” (Remynd NV, priority 2011, dated 2015)",
  "data": [
    {"test_system": "M17—3TAU(P301L) cells", "assay": "Neuroblastoma tauopathy model: inhibition of TAU-induced cytotoxicity (LDH)", "assay_type": "cell-based", "details": "Homo sapiens, 168 h; inhibition of TAU-induced toxicity (LDH), 7 days differentiation with retinoic acid", "method_in_brief": "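BE-M17 neuroblastoma cells stably expressing human TAU-P301L, differentiated with RA (2.5 μM in added medium) for 7 days at 37 °C with compounds at a range of concentrations. Cytotoxicity as supernatant LDH over total LDH (Cytotox 96); EC50 from dose-dependent inhibition curve.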", "units": {"EC50": "nM"}, "values": [
      {"compound": "Clc1cccc(-c2nsc(N3CCN(CCC4CCCCC4)CC3)n2)c1", "note": "[Example 162, 3-(3-chlorophenyl)-5-(4-(2-cyclohexylethyl)piperazin-1-yl)-1,2,4-thiadiazole]", "EC50": 3.3},
      {"compound": "COc1ccc(CCN2CCN(c3nc(-c4cnc(C)nc4)ns3)CC2)cc1", "note": "[Example 179, 5-(4-(4-methoxyphenethyl)piperazin-1-yl)-3-(2-methylpyrimidin-5-yl)-1,2,4-thiadiazole]", "EC50": 3.4},
      {"compound": "Cc1ccc(-c2nsc(N3CCN(CCc4ccccc4)CC3)n2)cn1", "note": "[Example 94, 1-[3-(6-Methyl-pyridin-3-yl)-[1,2,4]thiadiazol-5-yl]-4-phenethyl-piperazine]", "EC50": 9.5},
      {"compound": "Cc1ccc(CCN2CCN(c3nc(-c4ccc(Cl)cc4)ns3)CC2)cc1", "note": "[Example 26, 1-[3-(4-Chloro-phenyl)-[1,2,4]thiadiazol-5-yl]-4-(2-p-tolyl-ethyl)-piperazine]", "EC50": 4.9},
      {"compound": "FC(F)(F)c1cccc(CCN2CCN(c3nc(-c4cncc(Cl)c4)ns3)CC2)c1", "note": "[Example 149, 1-[3-(5-Chloro-pyridin-3-yl)-[1,2,4]thiadiazol-5-yl]-4-[2-(3-trifluoromethyl-phenyl)-ethyl]-piperazine]", "EC50": 3},
      {"compound": "COc1cccc(C(F)CN2CCN(c3nc(-c4ccc(Cl)cc4)ns3)CC2)c1", "note": "(stereo not shown) [Example 65, 1-[3-(4-Chloro-phenyl)-[1,2,4]thiadiazol-5-yl]-4-[2-fluoro-2-(3-methoxy-phenyl)-ethyl]-piperazine]", "EC50": 59.9},
      {"compound": "COc1ccc(CCN2CCN(c3nc(-c4ccccc4OC)ns3)CC2)cc1", "note": "[Example 45, 1-[2-(4-Methoxy-phenyl)-ethyl]-4-[3-(2-methoxy-phenyl)[1,2,4]thiadiazol-5-yl]-piperazine]", "EC50": 0.7},
      {"compound": "Fc1ccc(CCN2CCN(c3nc(-c4cncc(Cl)c4)ns3)CC2)cc1", "note": "[Example 131, 1-[3-(5-Chloro-pyridin-3-yl)-[1,2,4]thiadiazol-5-yl]-4-[2-(4-fluoro-phenyl)-ethyl]-piperazine]", "EC50": 1.3},
      {"compound": "COc1ccc(CCN2CCN(c3nc(-c4cncc(Cl)c4)ns3)CC2)cc1", "note": "[Example 91, 1-[3-(5-Chloro-pyridin-3-yl)-[1,2,4]thiadiazol-5-yl]-4-[2-(4-methoxy-phenyl)-ethyl]-piperazine]", "EC50": 0.9},
      {"compound": "Fc1cccc(CCN2CCN(c3nc(-c4ccc(Cl)cc4)ns3)CC2)c1", "note": "[Example 21, 1-[3-(4-Chloro-phenyl)-[1,2,4]thiadiazol-5-yl]-4-[2-(3-fluoro-phenyl)-ethyl]-piperazine]", "EC50": 9.5},
      {"compound": "COc1ccc(CCN2CCN(c3nc(-c4cc(Cl)ccn4)ns3)CC2)cc1", "note": "[Example 125, 1-[3-(4-Chloro-pyridin-2-yl)-[1,2,4]thiadiazol-5-yl]-4-[2-(4-methoxy-phenyl)-ethyl]-piperazine]", "EC50": 3},
      {"compound": "Clc1cccc(-c2nsc(N3CCN(CCc4ccccc4)CC3)n2)c1", "note": "[Example 82, 1-[3-(3-Chloro-phenyl)-[1,2,4]thiadiazol-5-yl]-4-phenethyl-piperazine]", "EC50": 4},
      {"compound": "COc1ccc(CCN2CCN(c3nc(-c4ccc(C(F)(F)F)nc4)ns3)CC2)cc1", "note": "[Example 42, 1-[2-(4-Methoxy-phenyl)-ethyl]-4-[3-(6-trifluoromethyl-pyridin-3-yl)-[1,2,4]thiadiazol-5-yl]-piperazine]", "EC50": 0.3},
      {"compound": "Cc1cc(-c2nsc(N3CCN(CCc4ccccc4)CC3)n2)cnn1", "note": "[Example 173, 3-(6-methylpyridazin-4-yl)-5-(4-phenethylpiperazin-1-yl)-1,2,4-thiadiazole]", "EC50": 2.9},
      {"compound": "Cc1ncc(-c2nsc(N3CCN(CCc4ccccc4)CC3)n2)cn1", "note": "[Example 178, 3-(2-methylpyrimidin-5-yl)-5-(4-phenethylpiperazin-1-yl)-1,2,4-thiadiazole]", "EC50": 13.2},
      {"compound": "Fc1cccc(-c2nsc(N3CCN(CCc4ccccc4)CC3)n2)c1", "note": "[Example 83, 1-[3-(3-Fluoro-phenyl)-[1,2,4]thiadiazol-5-yl]-4-phenethyl-piperazine]", "EC50": 9.5}
    ]}
  ]
}
